pKi: −log10 of the molar value. Read-outs that look alike come from different tables or passages of the source.
What was measured:
[1] = system: H929 human cancer cell lines; test: Cellular viability / proliferation (Cell TiterGlo, 72 h); type: cell-based
Method in brief: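 H929 cells plated at 1,000/well in 10% FBS medium received a 2-fold serial compound dilution (top 50 μM, DMSO <1%) 24 h later. After 72 h, viability was read by CellTiter-Glo luminescence. IC50 came from a four-parameter fit.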

Mcl-1 = Mcl-1 (Homo sapiens (Human), UniProt Q07820); test: Fluorescence polarization anisotropy (FPA) competition assay, FITC-Bak or FITC-Bim BH3 peptide; type: binding; conditions: read-out: Ki for Inhibition of Mcl-1 by FPA assay
Mcl-1, sequence (Q07820 172-327): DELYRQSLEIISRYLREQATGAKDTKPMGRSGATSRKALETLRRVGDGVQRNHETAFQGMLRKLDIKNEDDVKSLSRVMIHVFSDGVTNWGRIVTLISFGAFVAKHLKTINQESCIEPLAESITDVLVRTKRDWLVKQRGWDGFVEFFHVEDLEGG

[2] = Homo sapiens, NCI-H929, 72 h, read-out: GI50 on cellular proliferation of H929 human cancer cell lines, H929 cells, 72 h, Cell TiterGlo, 10% FBS

SMILES | GI50 [1, 2] [nM] | pKi (Mcl-1) | GI50 ([1]; H929 cells, 72 h, Cell TiterGlo, 10% FBS, read-out: GI50 on cellular proliferation of H929 human cancer cell lines) [nM]
Cc1cc(OCCCc2c3n(c4c(-c5c(C)nn(C)c5C)c(Cl)ccc24)CCCN(c2cc(C(=O)O)c4cnn(CCN(C)C)c4c2)C3=O)cc(C)c1Cl [Example 30, 6-[8-Chloro-11-[3-(4-chloro-3,5-dimethyl-phenoxy)propyl]-1-oxo-7-(1,3,5-trimethylpyrazol-4-yl)-4,5-dihydro-3H-[1,4]diazepino[1,2-a]indol-2-yl]-1-[2-(dimethylamino)ethyl]indazole-4-carboxylic acid] | 5400 | 8.92 | 
Cc1cc(OCCCc2c3n(c4c(-c5c(C)nn(C)c5C)c(Cl)ccc24)[C@H](C)CN(c2cccc4c2c(C(=O)O)nn4C)C3=O)cc(C)c1Cl [Example 125, 4-[(4R)-7-chloro-10-[3-(4-chloro-3,5-dimethyl-phenoxy)propyl]-4-methyl-1-oxo-6-(1,3,5-trimethylpyrazol-4-yl)-3,4-dihydropyrazino[1,2-a]indol-2-yl]-1-methyl-indazole-3-carboxylic acid] | 7600 | > 9.00 | 
Cc1cc(OCCCc2c3n(c4c(-c5c(C)nn(C)c5C)c(Cl)ccc24)[C@H](C)CN(c2cc(C(=O)O)cc4c2cc(C(F)(F)F)n4C)C3=O)cc(C)c1Cl [Example 211, 4-[(4R)-7-chloro-10-[3-(4-chloro-3,5-dimethyl-phenoxy)propyl]-4-methyl-1-oxo-6-(1,3,5-trimethylpyrazol-4-yl)-3,4-dihydropyrazino[1,2-a]indol-2-yl]-1-methyl-2-(trifluoromethyl)indole-6-carboxylic acid] | 11000 | 8.51 | 
Cc1cc(OCCCc2c3n(c4c(-c5c(C)nn(C)c5C)c(Cl)ccc24)[C@H](C)CN(c2cccc4cc5n(c24)CCN(CCC(C)C)C5=O)C3=O)cc(C)c1Cl [Example 229, (4R)-7-chloro-10-[3-(4-chloro-3,5-dimethyl-phenoxy)propyl]-2-(2-isopentyl-1-oxo-3,4-dihydropyrazino[1,2-a]indol-6-yl)-4-methyl-6-(1,3,5-trimethylpyrazol-4-yl)-3,4-dihydropyrazino[1,2-a]indol-1-one] | 9300 | 8.43 | 
Cc1cc(OCCCc2c3n(c4c(-c5c(C)ncnc5C)c(Cl)ccc24)[C@H](C)CN(c2cc(C(=O)O)c4ccn(C)c4c2)C3=O)cc(C)c1Cl [Example 152, 6-[(4R)-7-chloro-10-[3-(4-chloro-3,5-dimethyl-phenoxy)propyl]-6-(4,6-dimethylpyrimidin-5-yl)-4-methyl-1-oxo-3,4-dihydropyrazino[1,2-a]indol-2-yl]-1-methyl-indole-4-carboxylic acid] | 850 | > 9.00 | 
Cc1cc(OCCCc2c3n(c4c(-c5c(C)nc(CN6CCCC6)nc5C)c(Cl)ccc24)CCCN(c2cn(C)c4ccc(C(=O)O)cc24)C3=O)cc(C)c1Cl [Example 373] |  | 8.80 | 1200
Cc1cc(OCCCc2c3n(c4c(-c5c(C)nn(C)c5C)c(Cl)ccc24)[C@H](C)CN(c2cc(Cl)cc4c(C(=O)O)cn(C)c24)C3=O)cc(C)c1Cl [Example 449, (R)-5Chloro-7-(7-chloro-10-(3-(4-chloro-3,5-dimethylphenoxy)propyl)-4-methyl-1-oxo-6-(1,3,5-trimethyl-1H-pyrazol-4-yl)-3,4-dihydropyrazino[1,2-a]indol-2(1H)-yl)-1-methyl-1H-indole-3-carboxylic acid] | 1200 | 8.59 | 
Cc1cc(OCCCc2c3n(c4c(-c5c(C)nn(C)c5C)c(Cl)ccc24)[C@H](C)CN(c2nn(C)c4cc(C(=O)O)ccc24)C3=O)cc(C)c1Cl [Example 48, (R)-3-(7-chloro-10-(3-(4-chloro-3,5-dimethylphenoxy)propyl)-4-methyl-1-oxo-6-(1,3,5-trimethyl-1H-pyrazol-4-yl)-3,4-dihydropyrazino[1,2-a]indol-2(1H)-yl)-1-methyl-1H-indazole-6-carboxylic acid] | 800 | > 9.00 | 
Cc1cc(OCCCc2c3n(c4c(-c5c(C)nn(C)c5C)c(Cl)ccc24)[C@H](C)CN(c2cn(C)c4cc(-c5nnco5)ccc24)C3=O)cc(C)c1Cl [Example 343, (R)-7-Chloro-10-(3-(4-chloro-3,5-dimethylphenoxy)propyl)-4-methyl-2-(1-methyl-6-(1,3,4-oxadiazol-2-yl)-1H-indol-3-yl)-6-(1,3,5-trimethyl-1H-pyrazol-4-yl)-3,4-dihydropyrazino[1,2-a]indol-1(2H)-one] | 3600 | 8.43 | 
Cc1cc(OCCCc2c3n(c4c(-c5c(C)nc(CN6CCOCC6)nc5C)c(Cl)ccc24)[C@H](C)CN(c2cn(C)c4ccc(C(=O)O)cc24)C3=O)cc(C)c1Cl [Example 398, (R)-3-(7-Chloro-10-(3-(4-chloro-3,5-dimethylphenoxy)propyl)-6-(4,6-dimethyl-2-(morpholinomethyl)pyrimidin-5-yl)-4-methyl-1-oxo-3,4-dihydropyrazino[1,2-a]indol-2(1H)-yl)-1-methyl-1H-indole-5-carboxylic acid] | 200 | > 9.00 | 
Cc1cc(OCCCc2c3n(c4c(-c5c(C)nn(C)c5C)c(Cl)ccc24)[C@H](C)CN(c2cc(C(=O)O)c4ncccc4c2)C3=O)cc(C)c1Cl [Example 138, (R)-6-(7-chloro-10-(3-(4-chloro-3,5-dimethylphenoxy)propyl)-4-methyl-1-oxo-6-(1,3,5-trimethyl-1H-pyrazol-4-yl)-3,4-dihydropyrazino[1,2-a]indol-2(1H)-yl)quinoline-8-carboxylic acid] | 4800 | 8.66 | 
CCn1nc2c(N3C[C@@H](C)n4c(c(CCCOc5cc(C)c(Cl)c(C)c5)c5ccc(Cl)c(-c6c(C)nn(C)c6C)c54)C3=O)cccc2c1C(=O)O [Example 117, (R)-7-(7-chloro-10-(3-(4-chloro-3,5-dimethylphenoxy)propyl)-4-methyl-1-oxo-6-(1,3,5-trimethyl-1H-pyrazol-4-yl)-3,4-dihydropyrazino[1,2-a]indol-2(1H)-yl)-2-ethyl-2H-indazole-3-carboxylic acid] | 390 | > 9.00 | 
Cc1cc(OCCCc2c3n(c4c(-c5c(C)nn(C)c5C)c(Cl)ccc24)[C@H](C)CN(c2cccc4cc5n(c24)CCN(C)C5=O)C3=O)cc(C)c1Cl [Example 226, (4R)-7-chloro-10-[3-(4-chloro-3,5-dimethyl-phenoxy)propyl]-4-methyl-2-(2-methyl-1-oxo-3,4-dihydropyrazino[1,2-a]indol-6-yl)-6-(1,3,5-trimethylpyrazol-4-yl)-3,4-dihydropyrazino[1,2-a]indol-1-one] | 2600 | 8.31 | 
Cc1cc(OCCCc2c3n(c4c(-c5c(C)nn(C)c5C)c(Cl)ccc24)[C@H](C)CN(c2ccc(F)c4c(C(=O)O)c[nH]c24)C3=O)cc(C)c1Cl [Example 438, (R)-7-(7-Chloro-10-(3-(4-chloro-3,5-dimethylphenoxy)propyl)-4-methyl-1-oxo-6-(1,3,5-trimethyl-1H-pyrazol-4-yl)-3,4-dihydropyrazino[1,2-a]indol-2(1H)-yl)-4-fluoro-1H-indole-3-carboxylic acid] | 2800 | 8.96 | 
Cc1cc(OCCCc2c3n(c4c(-c5c(C)nn(C)c5C)c(Cl)ccc24)[C@H](C)CN(c2cn(C)c4ccc(-c5nnnn5C)cc24)C3=O)cc(C)c1Cl [Example 358, (R)-7-Chloro-10-(3-(4-chloro-3,5-dimethylphenoxy)propyl)-4-methyl-2-(1-methyl-5-(1-methyl-1H-tetrazol-5-yl)-1H-indol-3-yl)-6-(1,3,5-trimethyl-1H-pyrazol-4-yl)-3,4-dihydropyrazino[1,2-a]indol-1(2H)-one] | 2300 | 8.38 | 
Cc1cc(N2C[C@@H](C)n3c(c(CCCOc4cc(C)c(Cl)c(C)c4)c4ccc(Cl)c(-c5c(C)nn(C)c5C)c43)C2=O)c2c(c1)cc(C(=O)O)n2CC1CCN(C)C1 (stereo partly drawn) [Example 330, 7-((R)-7-Chloro-10-(3-(4-chloro-3,5-dimethylphenoxy)propyl)-4-methyl-1-oxo-6-(1,3,5-trimethyl-1H-pyrazol-4-yl)-3,4-dihydropyrazino[1,2-a]indol-2(1H)-yl)-5-methyl-1-((1-methylpyrrolidin-3-yl)methyl)-1H-indole-2-carboxylic acid] | 2300 | 8.89 | 
Cc1cc(OCCCc2c3n(c4c(-c5c(C)nn(C)c5C)c(Cl)ccc24)[C@H](C)CN(c2cc(OCC4COC4)cc4cc(C(=O)O)n(C)c24)C3=O)cc(C)c1Cl [Example 459, (R)-7-(7-Chloro-10-(3-(4-chloro-3,5-dimethylphenoxy)propyl)-4-methyl-1-oxo-6-(1,3,5-trimethyl-1H-pyrazol-4-yl)-3,4-dihydropyrazino[1,2-a]indol-2(1H)-yl)-1-methyl-5-(oxetan-3-ylmethoxy)-1H-indole-2-carboxylic acid] | 510 | 9.00 | 
Cc1nn(C)c(C)c1-c1c(Cl)ccc2c(CCCOc3ccc(F)cc3)c3n(c12)[C@H](C)CN(c1cn(C)c2ccc(C(=O)O)cc12)C3=O [Example 410, (R)-3-(7-Chloro-10-(3-(4-fluorophenoxy)propyl)-4-methyl-1-oxo-6-(1,3,5-trimethyl-1H-pyrazol-4-yl)-3,4-dihydropyrazino[1,2-a]indol-2(1H)-yl)-1-methyl-1H-indole-5-carboxylic acid] | 4000 | 8.85 | 
Cc1ccnc(Cn2c(C(=O)O)cc3cc(OC(F)(F)F)cc(N4C[C@@H](C)n5c(c(CCCOc6cc(C)c(Cl)c(C)c6)c6ccc(Cl)c(-c7c(C)nn(C)c7C)c65)C4=O)c32)c1 [Example 474, (R)-7-(7-Chloro-10-(3-(4-chloro-3,5-dimethylphenoxy)propyl)-4-methyl-1-oxo-6-(1,3,5-trimethyl-1H-pyrazol-4-yl)-3,4-dihydropyrazino[1,2-a]indol-2(1H)-yl)-1-((4-methylpyridin-2-yl)methyl)-5-(trifluoromethoxy)-1H-indole-2-carboxylic acid] | 1200 | 7.77 | 

Reference: patent US11596639B2, “Substituted indole Mcl-1 inhibitors” (Vanderbilt University, priority 2016, dated 2023)
